melting point: 203 to 205 °C
SMILES: COc1ccc(/C=C2/C(=O)NC(=S)N2C)cc1O [4d, (5Z)-5-(3-Hydroxy-4-methoxybenzylidene)-1-methyl-2-thioxoimidazolidin-4-one]

Reference: PMC6264224, “A Practical Approach to New (5Z) 2-Alkylthio-5-arylmethylene-1-methyl-1,5-dihydro-4H-imidazol-4-one Derivatives” (Molecules, 2011)
